# Publication PMC6754136 (PLoS ONE, 2019)
# System: BJ-hTERT cells
# Test: cellular GMP levels after inhibitor treatment
# Format: cell-based, human
# Conditions: 20 μM inhibitor, 1 hour; mean ± SEM; p<0.001
# Method: For assaying PDE5 inhibitor effects on GMP levels in a cell line, BJ-hTERT cells were plated in 6-well plates (Corning) in the media described above. When cells were 80% confluent, fresh, pre-warmed media with DMSO (untreated controls) or 20 μM sildenafil, 3, or 7 was added and incubated for 1 hour. Maximum DMSO concentration in all samples was 0.2% of the total well volume. Cells were washed once with cold 0.9% NaCl. 800 μL of 80:20 methanol:water spiked with 500 nM isotopically labeled amino acids as internal standards was added while cells were on dry ice. Cells were detached with a cell scraper. Extracts were vortexed for 10 minutes and centrifuged at maximum speed at 4 °C to remove debris. Extracts were dried down in a vacuum dryer and stored at -80 °C. An additional sample was reserved for visual inspection of cell health by confocal light microscopy and for cell counting with a hemocytometer. Three independent assays were conducted in total, with 1–2 replicates per assay. To analyze GMP levels, samples were reconstituted in 50 μL LC-MS grade water and analyzed by HPLC-UV-MS as described in the general procedures and for enzyme inhibition and kinetics assays. The amino acid standards were analyzed in full scan positive mode with mass windows m/z 50–800. GMP peak areas were normalized to the peak area of the internal standard ^13C4, ^15N-threonine or ^13C6, ^15N3-histidine to account for variations in extraction or resuspension volume. The peak areas were then normalized to the average GMP peak area in undrugged controls and multiplied by 100 to obtain the percent GMP.
smiles,measurement,value
"COc1ccc(-c2oc3c(CC=C(C)C)c(O)cc(O)c3c(=O)c2OCCCO)cc1 [Compound 7, 3-O-(3-Hydroxypropyl)-Icaritin]","cellular GMP concentration, % of the GMP concentration in untreated control cells",13 ± 2%
